# Results reported in patent US9873683B2, “P2X4 receptor antagonist” (NIPPON CHEMIPHAR CO., LTD., priority 2013, dated 2018).
# Several values for one entry are separate records, joined by “and”; a condition that tells them apart may be missing. Identical values can stand only once. Counter-ions that a name gives are not always drawn.
# Target: human P2X4 receptor (Homo sapiens (Human), UniProt Q99571)
# Test: P2X4 receptor antagonist activity (ATP-induced intracellular calcium, Fura-2 AM)
# Assay type: cell-based
# Settings: 1321N1 cells stably expressing human P2X4 receptor; test substance 15 minutes before addition of ATP; Fura-2 AM F340/F380; read-out: Inhibitory activity IC50
# Description: The ATP receptor (human P2X4) was introduced into the 1321N1 cells, and the cells were used as a stable ATP receptor expression system. The P2X4-expressing 1321N1 cells were seeded on a 96-well plate, cultured under the conditions of 37° C. and 5% CO2 for 24 hours, and used for calcium measurement. […] For the measurement, a microplate reader, Fluostar Optima (BMG Labtech), was used. The light emitted from a xenon lamp was passed through 340 nm and 380 nm filters, respectively, and irradiated on the cells, fluorescences of 510 nm, F340 and F380, emitted from the cells were measured, and change of the ratio F340/F380 was used as an index of change of intracellular calcium level. The measurement was performed by adding ATP to each well at a final concentration of 1 μM, and observing the ATP-induced Ca^2+ response over time.
# The 1321N1 cells stably expressing human P2X4 receptor were seeded on a 96-well plate, cultured under the conditions of 37° C. and 5% CO2 for 24 hours, and then used for intracellular calcium measurement. Fura-2 AM, which is a calcium fluorescent indicator, was used for the intracellular calcium measurement. […] The ratio of fluorescence values obtained with excitation lights of 340 nm and 380 nm was used as an index of the change of intracellular calcium level, and the inhibitory activity of the test substance was calculated on the basis of the comparison with the value obtained in the absence of the test substance (control).
# Chain of human P2X4 receptor (Q99571 whole entry): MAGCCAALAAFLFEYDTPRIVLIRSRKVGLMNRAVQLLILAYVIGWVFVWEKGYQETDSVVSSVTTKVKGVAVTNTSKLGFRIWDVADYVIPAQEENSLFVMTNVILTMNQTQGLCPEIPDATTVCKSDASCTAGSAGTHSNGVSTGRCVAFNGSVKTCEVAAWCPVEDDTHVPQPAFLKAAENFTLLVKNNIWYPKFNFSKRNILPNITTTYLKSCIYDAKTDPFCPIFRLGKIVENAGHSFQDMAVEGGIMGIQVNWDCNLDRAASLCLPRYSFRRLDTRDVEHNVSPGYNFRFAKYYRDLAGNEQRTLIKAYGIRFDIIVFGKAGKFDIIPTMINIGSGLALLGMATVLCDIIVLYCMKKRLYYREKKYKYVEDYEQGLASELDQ
row,Compound,IC50
1,"5-[4-[(5-Phenylethyl)-1H-imidazol-4-yl]phenyl]-1H-naphtho[1,2-b][1,4]diazepine-2,4(3H,5H)-dione hydrochloride [Example 73]",0.32 µM
2,"COc1ccccc1Cc1nnnn1-c1ccc(N2C(=O)CC(=O)Nc3c2ccc2ccccc32)cc1 [Example 1, 5-[4-[5-(2-Methoxybenzyl)-1H-tetrazol-1-yl]phenyl]-1H-naphtho[1,2-b][1,4]diazepine-2,4(3H,5H)-dione]",0.025 µM
3,"O=C1CC(=O)N(c2ccc(-n3nnnc3Cc3ccccc3O)cc2)c2ccc3ccccc3c2N1 [Example 2, 5-[4-[5-(2-Hydroxybenzyl)-1H-tetrazol-1-yl]phenyl]-1H-naphtho[1,2-b][1,4]diazepine-2,4(3H,5H)-dione]",0.037 µM
4,"O=C1CC(=O)N(c2ccc(-n3nnnc3CCc3cccnc3)cc2)c2ccc3ccccc3c2N1 [Example 3, 5-[4-[5-[2-(Pyridin-3-yl)ethyl]-1H-tetrazol-1-yl]phenyl]-1H-naphtho[1,2-b][1,4]diazepine-2,4(3H,5H)-dione hydrochloride]",0.38 µM
5,"O=C1CC(=O)N(c2ccc(-n3nnnc3CCc3ccccc3)cc2)c2ccc3ccccc3c2N1 [Example 4, 5-[4-(5-Phenethyl-1H-tetrazol-1-yl)phenyl]-1H-naphtho[1,2-b][1,4]diazepine-2,4(3H,5H)-dione]",0.044 µM
6,O=C1CC(=O)N(c2ccc(-n3nnnc3Cc3ccccc3O)nc2)c2ccc3ccccc3c2N1 [Example 11],0.077 µM
7,"COc1ccccc1Cc1nnnn1-c1ccc(C2=NCC(=O)Nc3c2ccc2ccccc32)cc1 [Example 19, 5-[4-[5-(2-Methoxybenzyl)-1H-tetrazol-1-yl]phenyl]-1H-naphtho[1,2-e][1,4]diazepin-2(3H)-one]",0.32 µM
8,"O=C1CC(=O)N(c2ccc(-c3nccn3CCc3ccccc3)cc2)c2ccc3ccccc3c2N1 [Example 22, 5-[4-(1-Phenethyl-1H-imidazol-2-yl)phenyl]-1H-naphtho[1,2-b][1,4]diazepine-2,4(3H,5H)-dione hydrochloride]",0.091 µM
9,"O=C1CC(=O)N(c2ccc(-c3nccn3Cc3ccc(Cl)cc3)cc2)c2ccc3ccccc3c2N1 [Example 23, 5-[4-[1-(4-Chlorobenzyl)-1H-imidazol-2-yl]phenyl]-1H-naphtho[1,2-b][1,4]diazepine-2,4(3H,5H)-dione hydrochloride]",0.3 µM
10,"COc1cccc(CCn2ccnc2-c2ccc(N3C(=O)CC(=O)Nc4c3ccc3ccccc43)cc2)c1 [Example 25, 5-[4 [1-(3-Methoxyphenethyl)-1H-imidazol-2-yl]phenyl]-1H-naphtho[1,2-b][1,4]diazepine-2,4(3H,5H)-dione]",0.082 µM
11,"O=C1CC(=O)N(c2ccc(-c3nccn3CCc3cccc(O)c3)cc2)c2ccc3ccccc3c2N1 [Example 27, 5-[4-[1-(3-Hydroxyphenethyl)-1H-imidazol-2-yl]phenyl]-1H-naphtho[1,2-b][1,4]diazepine-2,4(3H,5H)-dione]",0.078 µM
12,"Cc1cccc(CCc2nnnn2-c2ccc(N3C(=O)CC(=O)Nc4c3ccc3ccccc43)cc2)n1 [Example 30, 5-[4-[5-[2-(6-Methylpyridin-2-ylethyl)-1H-tetrazol-1-yl]-phenyl]-1H-naphtho[1,2-b][1,4]diazepine-2,4(3H,5H)-dione hydrochloride]",0.27 µM
13,"O=C1CC(=O)N(c2ccc(-n3ccnc3CCc3cccc(F)c3)cc2)c2ccc3ccccc3c2N1 [Example 31, 5-[4-[(2-(3-Fluorophenyl)ethyl)-1H-imidazol-1-yl]phenyl]-1H-naphtho[1,2-b][1,4]diazepine-2,4(3H,5H)-dione hydrochloride]",0.051 µM
14,"COc1ccccc1CCc1nccn1-c1ccc(N2C(=O)CC(=O)Nc3c2ccc2ccccc32)cc1 [Example 32, 5-[4-[(2-(2-Methoxyphenyl)ethyl)-1H-imidazol-1-yl]phenyl]-1H-naphtho[1,2-b][1,4]diazepine-2,4(3H,5H)-dione hydrochloride]",0.18 µM
15,"Cc1cccc(C)c1CCc1nccn1-c1ccc(N2C(=O)CC(=O)Nc3c2ccc2ccccc32)cc1 [Example 37, 5-[4-[2-(2,6-Dimethylphenylethyl)-1H-imidazol-1-yl]phenyl]-1H-naphtho[1,2-b][1,4]diazepine-2,4(3H,5H)-dione hydrochloride]",0.079 µM
16,"O=C1CC(=O)N(c2ccc(-n3ccnc3CCc3cccc(C(F)(F)F)c3)cc2)c2ccc3ccccc3c2N1 [Example 38, 5-[4-[2-[3-(Trifluoromethyl)phenylethyl]-1H-imidazol-1-yl]phenyl]-1H-naphtho[1,2-b][1,4]diazepine-2,4(3H,5H)-dione hydrochloride]",0.55 µM
17,"O=C1CN=C(c2ccc(-n3nnnc3CCc3ccccc3)cc2)c2ccc3ccccc3c2N1 [Example 40, 5-[4-(5-Phenethyl-1H-tetrazol-1-yl)phenyl]-1H-naphtho[1,2-e][1,4]diazepin-2(3H)-one]",0.63 µM
18,"O=C1CN=C(c2ccc(-n3ccnc3CCc3ccccc3)cc2)c2ccc3ccccc3c2N1 [Example 41, 5-[4-(2-Phenethyl-1H-imidazol-1-yl)phenyl]-1H-naphtho[1,2-e][1,4]diazepin-2(3H)-one dihydrochloride]",0.65 µM
19,"O=C1CC(=O)N(c2ccc(-n3ccnc3CCc3cccc(O)c3)cc2)c2ccc3ccccc3c2N1 [Example 43, 5-[4-[2-(3-Hydroxyphenethyl)-1H-imidazol-1-yl]phenyl]-1H-naphtho[1,2-b][1,4]diazepine-2,4(3H,5H)-dione hydrochloride]",0.053 µM and 0.19 µM
20,"CN(C)c1ccccc1Cc1nnnn1-c1ccc(N2C(=O)CC(=O)Nc3c2ccc2ccccc32)cc1 [Example 47, 5-[4-[5-[2-(Dimethylamino)benzyl]-1H-tetrazol-1-yl]phenyl]-1H-naphtho[1,2-b][1,4]diazepine-2,4(3H,5H)-dione mesylate]",0.094 µM
21,"O=C1CC(=O)N(c2ccc(-n3ccnc3-c3ccccc3)cc2)c2ccc3ccccc3c2N1 [Example 50, 5-[4-(2-Phenyl-1H-imidazol-1-yl)phenyl]-1H-naphtho[1,2-b][1,4]diazepine-2,4(3H,5H)-dione]",3.7 µM
22,"COc1ccccc1-c1nccn1-c1ccc(N2C(=O)CC(=O)Nc3c2ccc2ccccc32)cc1 [Example 51, 5-[4-[2-(2-Methoxyphenyl)-1H-imidazol-1-yl]phenyl]-1H-naphtho[1,2-b][1,4]diazepine-2,4(3H,5H)-dione]",1.7 µM
23,"NC(=O)c1ccccc1Cn1ccnc1-c1ccc(N2C(=O)CC(=O)Nc3c2ccc2ccccc32)cc1 [Example 53, 2-[[2-[4-(2,4-Dioxo-3,4-dihydro-1H-naphtho[1,2-b][1,4]diazepin-5(2H)-yl)phenyl]-1H-imidazol-1-yl]methyl]benzamide]",0.59 µM
24,"N#Cc1ccccc1CCc1nccn1-c1ccc(N2C(=O)CC(=O)Nc3c2ccc2ccccc32)cc1 [Example 54, 2-[2-[1-[4-(2,4-Dioxo-3,4-dihydro-1H-naphtho[1,2-b][1,4]diazepin-5(2H)-yl)phenyl]-1H-imidazol-2-yl]ethyl]benzonitrile]",0.19 µM
25,"NC(=O)c1ccccc1CCc1nccn1-c1ccc(N2C(=O)CC(=O)Nc3c2ccc2ccccc32)cc1 [Example 55, 2-[2-[1-[4-(2,4-Dioxo-3,4-dihydro-1H-naphtho[1,2-b][1,4]diazepin-5(2H)-yl)phenyl]-1H-imidazol-2-yl]ethyl]benzamide]",0.34 µM
